Source: ChEMBL document CHEMBL5053526, “Synthesis and biological evaluation of cajanonic acid A derivatives as potential PPARγ antagonists” (2021)
Calls of active or inactive are those of the source. No cut-off for these calls is given here.

Assays:
[1] = molecular target: T1, Peroxisome proliferator-activated receptor gamma (Homo sapiens) (UniProt P37231); assay: Antagonist activity at PPARgamma in HEK293 cells assessed as suppression of rosiglitazone induced PPARgamma transactivation at 30 uM by dual-luciferase reporter gene assay relative to control; assay type: cell-based; design: scale not given: the % may be the effect or the level left
T1 sequence (whole entry): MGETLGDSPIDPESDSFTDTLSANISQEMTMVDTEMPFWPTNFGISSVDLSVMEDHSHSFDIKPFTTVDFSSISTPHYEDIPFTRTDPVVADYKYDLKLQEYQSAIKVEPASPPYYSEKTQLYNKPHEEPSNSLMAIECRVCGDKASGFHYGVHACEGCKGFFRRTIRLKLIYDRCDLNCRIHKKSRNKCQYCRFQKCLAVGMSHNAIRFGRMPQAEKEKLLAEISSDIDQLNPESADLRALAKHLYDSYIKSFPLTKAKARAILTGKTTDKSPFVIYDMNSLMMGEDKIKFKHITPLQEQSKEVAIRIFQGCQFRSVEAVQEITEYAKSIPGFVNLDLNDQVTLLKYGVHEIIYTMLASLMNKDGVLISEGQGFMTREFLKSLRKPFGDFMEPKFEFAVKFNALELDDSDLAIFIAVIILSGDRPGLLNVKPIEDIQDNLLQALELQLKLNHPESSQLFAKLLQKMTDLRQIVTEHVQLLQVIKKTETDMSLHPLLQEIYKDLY

HepG2 [2] = assay: Insulin-sensitizing activity in human HepG2 cells assessed as increase in glucose consumption at 10 uM relative to control; assay type: functional
HepG2 [3] = assay: Insulin-sensitizing activity in human HepG2 cells assessed as glucose consumption at 10 uM (Rvb= 2.04 +/- 0.12 mM); assay type: functional
HepG2 [4] = assay: Insulin-sensitizing activity in human HepG2 cells assessed as fold change in glucose consumption at 10 uM relative to pioglitazone; assay type: functional
Mus musculus = organism: Mus musculus; assay: Hypoglycemic activity in db/db mouse assessed as improvement in oral glucose tolerance measured up to 120 mins by OGTT; assay type: functional, organism-based
[5] = molecular target: T1, Peroxisome proliferator-activated receptor gamma (Homo sapiens); assay: Antagonist activity at PPARgamma in HEK293 cells assessed as fold increase in suppression of rosiglitazone induced PPARgamma transactivation at 30 uM by dual-luciferase reporter gene assay relative to CAA; assay type: cell-based
HepG2 [6] = assay: Insulin-sensitizing activity in human HepG2 cells assessed as fold change in glucose consumption at 10 uM relative to CAA; assay type: functional

| Structure (SMILES) | Activity [1] [%] | Activity ([1]; filed as antagonist) [%] | fold change (FC) [5] | Activity (HepG2 [2]) [%] | Activity (HepG2 [3]) [mM] | fold change (FC) (HepG2 [4]) | Activity (Mus musculus) | fold change (FC) (HepG2 [6]) |
| --- | --- | --- | --- | --- | --- | --- | --- | --- |
| COc1cc(O)c(C(=O)O)c(CS(=O)(=O)c2ccccc2)c1CC=C(C)C | -1 |  |  | 4.9 | 2.14 |  |  |  |
| COc1cc2c(c(OCC=C(C)C)c1)C(=O)N(C(C)c1cccc(C(F)(F)F)c1)CC2 (centres undefined) |  | 79.4 |  | 30.6 | 2.66 |  |  |  |
| CCc1ccc(CCOc2ccc(CC3SC(=O)NC3=O)cc2)nc1 (centres undefined) [PIOGLITAZONE] |  |  |  | 43.3 | 2.92 |  |  |  |
| COc1cc(O)c(C(=O)O)c(CC(=O)c2ccc(Cl)cc2)c1 | 12 |  |  | 16.3 | 2.37 |  |  |  |
| COc1cc2c(c(OCC=C(C)C)c1)C(=O)N(Cc1ccc(F)c(Cl)c1)CC2 |  | 61.1 |  | 36.9 | 2.79 |  |  |  |
| COc1cc2c(c(OCC=C(C)C)c1)C(=O)N(C(C)c1ccccc1)CC2 (centres undefined) |  | 81.7 |  | 28.5 | 2.62 |  |  |  |
| COc1cc2c(c(OCC=C(C)C)c1)C(=O)N(Cc1cccc(C(F)(F)F)c1)CC2 |  | 98.2 | 1.3 | 50.6 | 3.07 | 1.2 | Active | 1.5 |
| COc1cc(CC(=O)c2cccs2)c(C(=O)O)c(O)c1CC=C(C)C |  | 90.2 |  | 19.1 | 2.43 |  |  |  |
| COc1cc(O)c(C(=O)O)c(CC(=O)c2cccs2)c1 | 8.7 |  |  | 9.1 | 2.24 |  |  |  |
| COc1cc2c(c(OCC=C(C)C)c1)C(=O)N(Cc1cccc(F)c1)CC2 |  | 75.1 |  | 37.4 | 2.8 |  |  |  |
| COc1cc(CC(=O)c2ccc(Cl)cc2)c(C(=O)O)c(O)c1CC=C(C)C | 28.1 |  |  | 26.2 | 2.59 |  |  |  |
| COc1cc(O)c(C(=O)O)c(CS(=O)(=O)c2ccccc2)c1 | -14 |  |  | -9.4 | 1.85 |  |  |  |
| COc1cc(CC(=O)c2ccc(F)cc2)c(C(=O)O)c(O)c1CC=C(C)C |  | 93.4 |  | 45.6 | 2.97 |  |  |  |
| COc1cc(O)c(C(=O)O)c(CC(=O)c2ccc(F)cc2)c1 | 6.3 |  |  | -1 | 2.02 |  |  |  |
| COc1cc(CS(=O)(=O)c2ccccc2)c(C(=O)O)c(O)c1CC=C(C)C | 1.9 |  |  | -3.4 | 1.97 |  |  |  |

The next lines start with results.

| Activity [1] [%] | Activity ([1]; filed as antagonist) [%] | fold change (FC) [5] | Structure (SMILES) | Activity (HepG2 [2]) [%] | Activity (HepG2 [3]) [mM] | fold change (FC) (HepG2 [4]) | Activity (Mus musculus) | fold change (FC) (HepG2 [6]) |
| --- | --- | --- | --- | --- | --- | --- | --- | --- |
| 11.3 |  |  | COc1cc(O)c(C(=O)O)c(CC(=O)c2ccc(Cl)cc2)c1CC=C(C)C | 27.5 | 2.6 |  |  |  |
|  | 72.8 |  | COc1cc(O)c(C(=O)O)c(CC(=O)c2ccc(F)cc2)c1CC=C(C)C | 39.7 | 2.85 |  |  |  |
|  | 83.2 |  | COc1cc(CC(=O)c2ccc(Cl)cc2Cl)c(C(=O)O)c(O)c1CC=C(C)C | 31.9 | 2.69 |  |  |  |
|  | 84.6 |  | COc1cc(O)c(C(=O)O)c(CC(=O)c2cccs2)c1CC=C(C)C | 18 | 2.41 |  |  |  |
|  | 54.3 |  | COc1cc(O)c(C(=O)O)c(CC(=O)c2ccc(Cl)cc2Cl)c1CC=C(C)C | 23.1 | 2.52 |  |  |  |
| 15.9 |  |  | COc1cc(O)c(C(=O)O)c(CC(=O)c2ccc(Cl)cc2Cl)c1 | 10.2 | 2.25 |  |  |  |
|  | 73.7 |  | COc1cc(O)c(C(=O)O)c(CC(=O)c2ccccc2)c1CC=C(C)C | 34 | 2.73 |  |  |  |
